From PubChem BioAssay (NCI)
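96-well plates; 48 h exposure; 5 concentrations. Endpoints by linear interpolation between flanking doses. Not reached: highest tested concentration assigned. The concentration for full growth arrest is given as TGI.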

Key:
Test in all cases: NCI tumour cell line growth inhibition, 48 h
[1] = test system: A498 renal
[2] = test system: A549 NSCLC
[3] = test system: CAKI-1 renal
[4] = test system: CCRF-CEM leukemia
[5] = test system: COLO 205 colon
[6] = test system: DLD-1 colon
[7] = test system: DMS 114 small cell lung
[8] = test system: DMS 273 small cell lung
[9] = test system: EKVX NSCLC
[10] = test system: HCC-2998 colon
[11] = test system: HCT-116 colon
[12] = test system: HCT-15 colon
[13] = test system: HL-60(TB) leukemia
[14] = test system: HOP-18 NSCLC
[15] = test system: HOP-62 NSCLC
[16] = test system: HOP-92 NSCLC
[17] = test system: HT29 colon
[18] = test system: IGROV1 ovarian
[19] = test system: K-562 leukemia
[20] = test system: KM12 colon
[21] = test system: KM20L2 colon
[22] = test system: LOX IMVI melanoma
[23] = test system: M19-MEL melanoma
[24] = test system: MALME-3M melanoma
[25] = test system: MCF7 breast
[26] = test system: MOLT-4 leukemia
[27] = test system: NCI-H226 lung
[28] = test system: NCI-H23 lung
[29] = test system: NCI-H460 lung
[30] = test system: NCI-H522 lung
[31] = test system: NCI/ADR-RES ovarian
[32] = test system: OVCAR-3 ovarian
[33] = test system: OVCAR-4 ovarian
[34] = test system: OVCAR-5 ovarian
[35] = test system: OVCAR-8 ovarian
[36] = test system: P388 leukemia
[37] = test system: P388/ADR leukemia
[38] = test system: RPMI-8226 leukemia
[39] = test system: RXF 393 renal
[40] = test system: SF-268 CNS
[41] = test system: SF-295 CNS
[42] = test system: SF-539 CNS
[43] = test system: SK-MEL-2 melanoma
[44] = test system: SK-MEL-28 melanoma
[45] = test system: SK-MEL-5 melanoma
[46] = test system: SK-OV-3 ovarian
[47] = test system: SN12C renal
[48] = test system: SN12K1 renal
[49] = test system: SNB-19 CNS
[50] = test system: SNB-75 CNS
[51] = test system: SNB-78 CNS
[52] = test system: SW-620 colon
[53] = test system: U251 CNS
[54] = test system: UACC-257 melanoma
[55] = test system: UACC-62 melanoma
[56] = test system: UO-31 renal
[57] = test system: XF 498 CNS

## COc1cc2c(cc1O)N=C[C@@H]1CCC(O)N1C2=O (mixture of isomers)
[1]
  TGI: 0.928 µM
[2]
  TGI: 71.6 µM
[3]
  TGI: 11.7 µM
[4]
  TGI: 1.66 µM
[5]
  TGI: 1.93 µM
[6]
  TGI: 13.5 µM
[7]
  TGI: 1.41 µM
[8]
  TGI: 19.6 µM
[9]
  TGI: 5.99 µM
[10]
  TGI: 2.81 µM
[11]
  TGI: 34 µM
[12]
  TGI: 6.44 µM
[13]
  TGI: 11.1 µM
[14]
  TGI: 3.39 µM
[15]
  TGI: 2.91 µM
[16]
  TGI: 2.46 µM
[17]
  TGI: 72.9 µM
[18]
  TGI: 75.5 µM
[19]
  TGI: 24.2 µM
[20]
  TGI: 17.9 µM
[21]
  TGI: 24.9 µM
[22]
  TGI: 0.974 µM
[23]
  TGI: 4.81 µM
[24]
  TGI: 1.42 µM
[25]
  TGI: 37 µM
[26]
  TGI: 2.69 µM
[27]
  TGI: 2.08 µM
[28]
  TGI: 4.38 µM
[29]
  TGI: 11.4 µM
[30]
  TGI: 0.636 µM
[31]
  TGI: 3.42 µM
[32]
  TGI: 1.49 µM
[33]
  TGI: 18 µM
[34]
  TGI: 18.8 µM
[35]
  TGI: 10 µM
[36]
  TGI: 9.2 µM
[37]
  TGI: 5.15 µM
[38]
  TGI: 2.39 µM
[39]
  TGI: 0.638 µM
[40]
  TGI: 6.25 µM
[41]
  TGI: 5.77 µM
[42]
  TGI: 1.83 µM
[43]
  TGI: 0.748 µM
[44]
  TGI: 2.84 µM
[45]
  TGI: 1.83 µM
[46]
  TGI: 84 µM
[47]
  TGI: 19.1 µM
[48]
  TGI: 25 µM
[49]
  TGI: 147 µM
[50]
  TGI: 3.26 µM
[51]
  TGI: 46.3 µM
[52]
  TGI: 6.96 µM
[53]
  TGI: 1.71 µM
[54]
  TGI: 7.65 µM
[55]
  TGI: 1.5 µM
[56]
  TGI: 2.79 µM
[57]
  TGI: 1.2 µM
